Columns and labels:
[1] = molecular target: T1, KCNQ2/3 channels (Homo sapiens, UniProt O43525+O43526); test: Fluorescence assay using a voltage sensitive dye (fluorimetry); format: cell-based; settings: CHO-K1 cells expressing KCNQ2/3 channels; for Emax: relative to retigabine = 100%, read-out: Fluorimetry % efficacy (retigabine = 100%)
T1 construct: expressed in transfected cells; host or cells: CHO-K1 cells, kept under selection antibiotics
Method: Pharmacological Experiments Method I. Fluorescence Assay Using a Voltage Sensitive Dye (Fluorimetry)
[…] CHO-K1 cells expressing KCNQ2/3 channels are cultivated adherently at 37° C., 5% CO2 and 95% humidity in cell culture bottles (e.g. 80 cm^2 TC flasks, Nunc) with DMEM-high glucose (Sigma Aldrich, D7777) including 10% FCS (PAN Biotech, e.g. 3302-P270521) or alternatively MEM Alpha Medium (1×, liquid, Invitrogen, #22571), 10% fetal calf serum (FCS) (Invitrogen, #10270-106, heat-inactivated) and the necessary selection antibiotics.
Before being sown out for the measurements, the cells are washed with 1×DPBS buffer Ca^2+/Mg^2+-free (e.g. Invitrogen, #14190-094) and detached from the bottom of the culture vessel by using Accutase (PAA Laboratories, #L11-007) (incubation with Accutase for 15 min at 37° C.). The cell number is determined using a CASY™ cell counter (TCC, Schärfe System). Depending on the optimal density for each individual cell line, 20,000-30,000 cells/well/100 μl are seeded onto 96-well Corning™ CellBIND™ assay plates (Flat Clear Bottom Black Polystyrene Microplates, #3340). Freshly seeded cells are then left to settle for one hour at room temperature, followed by incubation for 24 hours at 37° C., 5% CO2 and 95% humidity.
The voltage-sensitive fluorescent dye from the Membrane Potential Assay Kit (Red™ Bulk format part R8123 for FLIPR, MDS Analytical Technologies™) is prepared by dissolving the contents of one vessel Membrane Potential Assay Kit Red Component A in 200 ml of extracellular buffer (ES buffer, 120 mM NaCl, 1 mM KCl, 10 mM HEPES, 2 mM CaCl2, 2 mM MgCl2, 10 mM glucose; pH 7.4). After removal of the nutrient medium, the cells are washed once with 200 μl of ES buffer, then loaded for 45 min at room temperature in 100 μl of dye solution in the dark.
Fluorescence measurements are carried out in a BMG Labtech FLUOstar™, BMG Labtech NOVOstar™ or BMG Labtech POLARstar™ instrument (525 nm excitation, 560 nm emission, Bottom Read mode). After incubation with the dye, 50 μl of the test substances in the desired concentrations, or 50 μl of ES buffer for control purposes, are applied to the wells of the assay plate and incubated for 30 min at room temperature while being shielded from light. The fluorescence intensity of the dye is then measured for 5 min and the fluorescence value F1 of each well is thus determined at a given, constant time. 15 μl of a KCl solution are then added to each well (final concentration of potassium ions 92 mM). The change in fluorescence intensity is subsequently monitored until all the relevant values have been obtained (mainly 5-30 min). At a given time post KCl application, a fluorescence value F2 is determined, in this case at the time of the fluorescence peak.
For calculation, the fluorescence intensity F2 is corrected for the fluorescence intensity F1, and the activity (ΔF/F) of the target compound on the potassium channel is determined as follows:
In order to determine whether a substance has agonistic activity,
[formula] can be related to
[formula] of control wells.
[formula] is determined by adding to the well only the buffer solution instead of the test substance, determining the value F1K of the fluorescence intensity, adding the potassium ions as described above, and measuring a value F2K of the fluorescence intensity. F2K and F1K are then calculated as follows: […]
A substance has an agonistic activity on the potassium channel if
[formula] is greater than
Independently of the comparison of
[formula] it is possible to conclude that a target compound has agonistic activity if
[formula] increases dose dependently.
Calculations of EC50 and IC50 values are carried out with the aid of ‘Prism v4.0’ software (GraphPad Software™).

[2] = system: acute noxious thermal stimulus (tail withdrawal reflex); test: Low-intensity tail flick test (rat); format: in vivo; settings: dose 21.5 mg/kg
Method: Method II. Low-Intensity Tail Flick Test (Rat) In the low-intensity tail flick test, the determination of the antinociceptive effect of the compounds according to the invention towards an acute noxious thermal stimulus is carried out by measuring the withdrawal reflex of the rat tail (tail flick) in response to a radiant heat beam (analgesia meter; model 2011 of the company Rhema Labortechnik, Hofheim, Germany) according to the method described by D'Amour and Smith (J. Pharm. Exp. Ther. 72, 74 79 (1941). To this end, the rats were placed in a plexiglas restrainer, and a low-intensity radiant heat beam (48° C.) was focused onto the dorsal surface of the tail root. […] Before administration of a compound according to the invention, the animals were pre-tested twice in the course of five minutes and the mean of these measurements was calculated as the pre-test mean. The antinociceptive effect was determined at 20, 40 and 60 min after peroral compound administration. The antinociceptive effect was calculated based on the increase in the tail withdrawal latency according to the following formula and is expressed as percentage of the maximum possible effect (MPE [%]): MPE=[(T1−T0)/(T2−T0)]*100 In this, T0 is the control latency time before and T1 the latency time after administration of the compound, T2 is the cutoff time and MPE is the maximum possible effect. […]

[3] = system: formalin-induced nociceptive behaviour, second (late) phase; test: Formalin test carried out on mice; format: in vivo
Method: Method III. Formalin Test Carried Out on Mice In the formalin test, the testing to determine the antinociceptive effect of the compounds according to the invention is carried out on male mice (NMRI, 20 to 30 g body weight, Iffa, Credo, Belgium). In the formalin test as described by D. Dubuisson et al., Pain 1977, 4, 161-174, a distinction is drawn between the first (early) phase (up to 10 minutes after the injection of formalin) and the second (late) phase (up to 60 minutes after the injection of formalin). The early phase, as an immediate reaction to the injection of formalin, is a model of acute pain, whereas the late phase is regarded as a model of persistent (chronic) pain (T. J. Coderre et al., Pain 1993, 52, 259-285). […] Subsequently, the nociceptive behaviour is continuously detected by observing the animals over a test period of three minutes in the second (late) phase of the formalin test (21 to 24 minutes after the injection of formalin). The pain behaviour is quantified by adding up the seconds over which the animals display licking and biting of the paw in question during the test period. […] Based on the quantification of the pain behaviour, the effect of the substance is determined in the formalin test as a percentage change relative to the corresponding control. […]

CCNc1nc2cc(C(F)(F)F)ccc2c(C)c1C(=O)NCc1cccc(F)c1 [Example 1, 2-ethylamino-N-[(3-fluorophenyl)-methyl]-4-methyl-7-(trifluoromethyl)-quinoline-3-carboxylic acid amide]
EC50 [1]: 0.252 µM | Emax [1]: 141% | Low intensity tail flick, rat, peroral, MPE (dose) [2]: 44% (21.5) | Formalin test, mice, intravenous, MPE (dose) ([3]; dose 4.64 mg/kg): 71% (4.64)

Cc1c(C(=O)NCc2cccc(F)c2)c(N2CCCC2)nc2cc(C(F)(F)F)ccc12 [Example 2, N-[(3-fluorophenyl)-methyl]-4-methyl-2-pyrrolidin-1-yl-7-(trifluoromethyl)-quinoline-3-carboxylic acid amide]
EC50 [1]: 0.801 µM | Emax [1]: 186%

Cc1c(C(=O)NCc2ccc(F)cc2)c(N(C)C)nc2cc(C(F)(F)F)ccc12 [Example 3, 2-dimethylamino-N-[(4-fluorophenyl)-methyl]-4-methyl-7-(trifluoromethyl)-quinoline-3-carboxylic acid amide]
EC50 [1]: 0.35 µM | Emax [1]: 105%

Cc1c(C(=O)NCc2cccc(F)c2)c(N(C)C)nc2cc(C(F)(F)F)ccc12 [Example 4, 2-dimethylamino-N-[(3-fluorophenyl)-methyl]-4-methyl-7-(trifluoromethyl)-quinoline-3-carboxylic acid amide]
EC50 [1]: 0.51 µM | Emax [1]: 140%

CCN(CC)c1nc2cc(C(F)(F)F)ccc2c(C)c1C(=O)NCc1ccc(F)cc1 [Example 5, 2-diethylamino-N-[(4-fluorophenyl)-methyl]-4-methyl-7-(trifluoromethyl)-quinoline-3-carboxylic acid amide]
EC50 [1]: 0.721 µM | Emax [1]: 205%

Cc1c(C(=O)NCc2ccc(F)cc2)c(N2CCCC2)nc2cc(C(F)(F)F)ccc12 [Example 6, N-[(4-fluorophenyl)-methyl]-4-methyl-2-pyrrolidin-1-yl-7-(trifluoromethyl)-quinoline-3-carboxylic acid amide]
EC50 [1]: 0.593 µM | Emax [1]: 204%

CCN(CC)c1nc2cc(C(F)(F)F)ccc2c(C)c1C(=O)NCc1cccc(F)c1 [Example 7, 2-diethylamino-N-[(3-fluorophenyl)-methyl]-4-methyl-7-(trifluoromethyl)-quinoline-3-carboxylic acid amide]
EC50 [1]: 0.466 µM | Emax [1]: 199% | Formalin test, mice, intravenous, MPE (dose) ([3]; dose 10.0 mg/kg): 65% (10.0)

CCNc1nc2cc(C(F)(F)F)ccc2c(C)c1C(=O)NCc1ccc(F)cc1 [Example 8, 2-ethylamino-N-[(4-fluorophenyl)-methyl]-4-methyl-7-(trifluoromethyl)-quinoline-3-carboxylic acid amide]
EC50 [1]: 0.307 µM | Emax [1]: 157%

CNc1nc2cc(C(F)(F)F)ccc2c(C)c1C(=O)NCc1cccc(F)c1 [Example 9, N-[(3-fluorophenyl)-methyl]-4-methyl-2-methylamino-7-(trifluoromethyl)-quinoline-3-carboxylic acid amide]
EC50 [1]: 0.403 µM | Emax [1]: 111%

Cc1c(C(=O)NCc2cccc(F)c2)c(N2CCOCC2)nc2cc(C(F)(F)F)ccc12 [Example 10, N-[(3-Fluorophenyl)-methyl]-4-methyl-2-morpholin-4-yl-7-(trifluoromethyl)-quinoline-3-carboxylic acid amide]
EC50 [1]: 1.07 µM | Emax [1]: 181%

Reference: patent US8470852B2, “Substituted 2-amino-quinoline-3-carboxamides as KCNQ2/3 modulators” (Gruenenthal GmbH, priority 2010, dated 2013)
